The values that follow come from patent publication US20240076624A1, “Methods and Tools for Studying Enteroendocrine Cells” (Koninklijke Nederlandse Akademie Van Wetenschappen, priority 2020, published 2024).

The target of experiment [1] is T1, olfactory receptor OR51E2 (Homo sapiens, UniProt Q9H255).
T1 construct: endogenous in cells; host or cells: human intestinal organoids NEUROG3-dTomato / TPH1-mClover carrying the Tq-Ca-FLITS calcium sensor, differentiated to EECs
T1 sequence (Q9H255 1-320): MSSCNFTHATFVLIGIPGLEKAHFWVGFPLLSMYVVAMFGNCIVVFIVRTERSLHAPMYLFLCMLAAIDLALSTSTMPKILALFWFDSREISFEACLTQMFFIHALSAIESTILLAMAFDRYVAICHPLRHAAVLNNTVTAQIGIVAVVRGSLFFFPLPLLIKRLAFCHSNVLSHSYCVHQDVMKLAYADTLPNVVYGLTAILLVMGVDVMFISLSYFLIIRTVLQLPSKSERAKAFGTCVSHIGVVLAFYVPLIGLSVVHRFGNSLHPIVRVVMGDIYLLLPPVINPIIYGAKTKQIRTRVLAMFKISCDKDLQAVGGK
Kind of experiment: Live cell imaging of calcium reporter (Tq-Ca-FLITS) organoids. The class given is cell-based. The conditions noted are these: NEUROG3-dTomato TPH1-mClover CaFLITS-Turquoise reporter organoids; FIG. 2F. The protocol: A red calcium probe (pTorPE-R-GECO1, addgene plasmid #32465) was used as a template to engineer a cyan genetically encoded calcium probe. The cpApple was replaced with a circular permuted mTurquoise. The resulting probe was dubbed Tq-Ca-FLITS (Turquoise Calcium Fluorescence Lifetime Indicator for Truthful Sensing). A triple nuclear localization signal (3×nls) was added to the N-terminus of the calcium probe to simplify analysis. Details of the engineering and characterization will be described elsewhere (Van der Linden et al., in preparation).
PCRs were performed on Tq-Ca-FLITS (Fw […]atgggatcagatccaaaaaagaagag, Rev […]c[…]) as well as H2B-mMaroon (Fw […], Rev […]attaagtttgtgcccc) and the two PCRs were cloned into a lentiviral vector using InPhusion Cloning (Takara), to produce H2B-mMaroon-P2A-Tq-Ca-FLITS, two simultaneously expressed cistrons separated by a de-optimized P2A (Lo et al., 2015).
H2B-mMaroon-P2A-Tq-Ca-FLITS organoids were imaged on a Leica SP8 confocal laser scanning microscope, equipped with Argon laser and White Light Laser, the latter allowing spectral flexibility for optimal visualization of all fluorophores. […]

For experiment [2], the target named is T2, OR51E2 (Homo sapiens, UniProt Q9H255).
T2 construct: endogenous in cells; host or cells: human intestinal organoids NEUROG3-dTomato / TPH1-mClover carrying the Tq-Ca-FLITS calcium sensor, differentiated to EECs
T2 sequence (Q9H255 1-320): T1 sequence (Q9H255 1-320)
Kind of experiment: Calcium sensor (Tq-Ca-FLITS) response in TPH1-mClover NEUROG3-dTomato organoid. The class given is cell-based. The conditions noted are these: for calcium flux in EECs (TPH1-negative): colon-derived reporter organoid. The source says:
(F) Fluorescent image of a TPH1^mClover NEUROG3^dTomato organoid that is transduced with the turquoise calcium sensor Tq-Ca-FLITS, containing a nuclear localization signal. Five examples of nuclei are highlighted of which the calcium response is followed after treatment with Beta-ionone, the agonist of OR51E2.
For example, in some embodiments, the compound is beta-ionone and the sensor is a calcium sensor. Beta-ionone is an agonist of the olfactory receptor OR51E2. The mouse homologue of OR51E2 had been reported to be expressed in mouse EECs (Fleischer et al., 2015; Jovancevic et al., 2017). However, prior to the invention, it was not known which human EECs OR51E2 is expressed in. Olfactory genes in humans and mice are very different as these genes quickly evolve. Therefore, the homology of these sequences tend to be low, and it is difficult to project expression profiles of mouse olfactory genes on humans. The inventors have found two olfactory receptors that are abundantly expressed in human EECs, OR51E1 and OR51E2. […] This provided proof-of-concept that sensors combined with hormone reporters from EEC-TAG can aid the study of functional signalling responses in human EEC subtypes. Thus, calcium reporters can be combined as a measure of hormone activation with the knowledge of the expression levels of targets such as olfactory receptors in subpopulations of EECs. Thus, the use of a reporter organoid in conjunction with a calcium reporter allows for screening for activators of targets such as cell surface receptors, e.g. olfactory receptors, and such methods are provided herein. In some embodiments, the calcium assay is conducted in an intestinal organoid which is not itself a reporter organoid and a reporter organoid is used to validate which EEC subtype the calcium is being activated in and so which hormones are being activated. […] This can be extrapolated to which EEC subtype hormone secretion is being activated in.

Experiment [3] addresses T2, OR51E2. The conditions noted are these: HEK cells after overexpression of OR51E2 (Pietraszewska-Bogiel et al., 2019); cited from earlier work.
A further experiment concerns MLK-7K. To be noted: target MLK-7K; cited from earlier work.
The subject of experiment [4] is enteroendocrine cell differentiated organoids. Kind of experiment: Hormone expression in EEC differentiated organoids treated with Midkine. The class given is cell-based, human.

As for `CC(=O)/C=C/C1=C(C)CCCC1(C)C` [Beta-ionone], in experiment [1], the “calcium reporter response in EECs” value is listed as “calcium sparking in EECs that were TPH1-negative”. Moreover, on OR51E2 [2], the “calcium flux in non-EEC” value was “does not show calcium increases” and the “calcium flux in EECs (TPH1-negative)” value was “increases in calcium flux”. Moreover, on OR51E2 [2] (listed as beta-ionone), the “calcium flux in EECs (TPH1-negative)” value is “calcium sparking”. On OR51E2 [3], the calcium response entry is reported as “elicit a calcium response”.

Turning to `c1ccc(-c2n[nH]cc2-c2ccnc3ccccc23)nc1` [LY-36494, 4-[3-(2-Pyridinyl)-1H-pyrazol-4-yl]-quinoline], the IC50 in the experiment with MLK-7K is 1400 nM.

B1: Midkine: heparin-binding growth factor, cytokine; sequence SEQ ID NO:69 (protein, listed as Homo sapiens)
chain: VAKKKDKVKKGGPGSECAEWAWGPCTPSSKDCGVGFREGTCGAQTQRIRCRVPCNWKKEFGADCKYKFENWGACDGGTGTKVRQGTLKKARYNAQCQETIRVTKPCTPKTKAKAKAKKGKGKD
As for B1, the “expression of EEC hormones” value in experiment [4] was “reduces the expression of all hormones”.

As usually defined, the IC50 is the concentration at which inhibition is half-maximal.
